Measured values published in patent publication US7521478B2, “Total synthesis of myriaporones” (Pharma Mar, S.A.U., priority 2002, dated 2009).
Like-named read-outs stand apart in the source and are kept apart here.

Experiments:
Format in all cases: cell-based
[1] = test system: LoVo-Dox; assay: Inhibition of cell growth by colorimetric SRB assay, LOVO-DOX; conditions: Homo sapiens, LOVO-DOX, 48 hours exposure; for LC50 (concentration for 50% cell killing): read-out: LC50; for IC (total growth inhibition): read-out: TGI
Description: (§1) The finality of these assays is to interrupt the growth of a “in vitro” tumor cell culture by means a continued exhibition of the cells to the sample to be testing.
(§2) Inhibition of Cell Growth by Colorimetric Assay.
(§3) A colorimetric type of assay, using sulforhodamine B (SRB) reaction has been adapted for a quantitative measurement of cell growth and viability (following the technique described by P. A. Skehan, et al., J. Natl. CancerInst. 1990, 82, 1107-1112).
(§4) This form of assay employs 96 well cell culture microplates of 9 mm diameter (T. Mosmann et al., J. of Immuological Methods 1983, 65, 55-63; G. T. Faircloth et al., J. of Tissue and Culture Methods 1988, 11, 201-205). Most of the cell lines are obtained from American Type Culture Collection (ATCC) derived from different human cancer types.
(§5) Cells are maintained in RPMI 1640 10% FBS, supplemented with 0.1 g/L penicillin and 0.1 g/L streptomycin sulfate and then incubated at 37° C., 5% CO2 and 98% humidity. For the experiments, cells were harvested from subconfluent cultures using trypsin and resuspended in fresh medium before plating.
(§6) Cells are seeded in 96 well microtiter plates, at 5×10^3 cells per well in aliquots of 195 μL medium, and they are allowed to attach to the plate surface by growing in drug free medium for 18 hours. Afterward, samples are added in aliquots of 5 μL in a ranging from 10 to 10^−8 μg/mL, dissolved in DMSO/EtOH/PBS (0.5:0.5:99). After 48 hours exposure, the antitumor effect are measured by the SRB methodology: cells are fixed by adding 50 μL of cold 50% (wt/vol) trichloroacetic acid (TCA) and incubated for 60 minutes at 4° C. Plates are washed with deionizer water and dried. One hundred μl of SRB solution (0.4% wt/vol in 1% acetic acid) is added to each microliter well and incubated for 10 minutes at room temperature. Unbound SRB is removed by washing with 1% acetic acid. Plates are air dried and bound stain is solubilized with Tris buffer. Optical densities are read on a automated spectrophotometric plate reader at a single wavelength of 490 nm.
(§7) The values for mean +/−SD of data from triplicate wells are calculated. Some parameters for cellular responses can be calculated: GI=growth inhibition, TGI=total growth inhibition (cytostatic effect) and LC=cell killing (cytotoxic effect).

[2] = test system: SK-BR-3; assay: Inhibition of cell growth by colorimetric SRB assay, SK-BR-3; conditions: SK-BR-3, 48 hours exposure; for GI50 / CC50: Homo sapiens; for CC50: cell killing, read-out: LC50 (the source's name); for TGI: total growth inhibition
Description: as §1, §2, §3, §4, §5, §6, §7

[3] = test system: HT-29; assay: Inhibition of cell growth by colorimetric SRB assay, HT-29; conditions: Homo sapiens, HT-29, 48 hours exposure; for CC50: cell killing, read-out: LC50 (the source's name); for IC (total growth inhibition): read-out: TGI
Description: as §1, §2, §3, §4, §5, §6, §7

[4] = test system: HeLa; assay: Inhibition of cell growth by colorimetric SRB assay, HELA; conditions: Homo sapiens, HELA, 48 hours exposure; for CC50: cell killing, read-out: LC50 (the source's name); for IC (total growth inhibition): read-out: TGI
Description: as §1, §2, §3, §4, §5, §6, §7

[5] = test system: PANC-1; assay: Inhibition of cell growth by colorimetric SRB assay, PANC-1; conditions: Homo sapiens, PANC-1, 48 hours exposure; for CC50: cell killing, read-out: LC50 (the source's name); for IC (total growth inhibition): read-out: TGI
Description: as §1, §2, §3, §4, §5, §6, §7

[6] = test system: IGROV; assay: Inhibition of cell growth by colorimetric SRB assay, IGROV; conditions: Homo sapiens, 48 hours exposure; for CC50: cell killing, read-out: LC50 (the source's name); for IC (total growth inhibition): read-out: TGI
Description: as §1, §2, §3, §4, §5, §6, §7

[7] = test system: HeLa-APL; assay: Inhibition of cell growth by colorimetric SRB assay, HELA-APL; conditions: Homo sapiens; for CC50: cell killing, read-out: LC50 (the source's name); for IC (total growth inhibition): read-out: TGI
Description: as §1, §2, §3, §4, §5, §6, §7

[8] = test system: IGROV-ET; assay: Inhibition of cell growth by colorimetric SRB assay, IGROV-ET; conditions: Homo sapiens, IGROV-ET, 48 hours exposure; for CC50: cell killing, read-out: LC50 (the source's name); for IC (total growth inhibition): read-out: TGI
Description: as §1, §2, §3, §4, §5, §6, §7

[9] = test system: SK-MEL-28; assay: Inhibition of cell growth by colorimetric SRB assay, MEL-28; conditions: Homo sapiens, SK-MEL-28, MEL-28, 48 hours exposure; for CC50: cell killing, read-out: LC50 (the source's name); for IC (total growth inhibition): read-out: TGI
Description: as §1, §2, §3, §4, §5, §6, §7

[10] = test system: DU-145; assay: Inhibition of cell growth by colorimetric SRB assay, DU-145; conditions: Homo sapiens, DU-145, 48 hours exposure; for CC50: cell killing, read-out: LC50 (the source's name); for IC (total growth inhibition): read-out: TGI
Description: as §1, §2, §3, §4, §5, §6, §7

[11] = test system: LoVo; assay: Inhibition of cell growth by colorimetric SRB assay, LOVO; conditions: Homo sapiens, LOVO, 48 hours exposure; for LC50: cell killing, read-out: LC50; for IC (total growth inhibition): read-out: TGI
Description: as §1, §2, §3, §4, §5, §6, §7

[12] = test system: A-549; assay: Inhibition of cell growth by colorimetric SRB assay, A-549; conditions: Homo sapiens, A549, A-549, 48 hours exposure; for CC50: cell killing, read-out: LC50 (the source's name); for IC (total growth inhibition): read-out: TGI
Description: as §1, §2, §3, §4, §5, §6, §7

[13] = test system: LNCaP; assay: Inhibition of cell growth by colorimetric SRB assay, LN-caP; conditions: Homo sapiens, LN-caP, 48 hours exposure
Description: as §1, §2, §3, §4, §5, §6, §7

[14] = test system: K-562; assay: Inhibition of cell growth by colorimetric SRB assay, K-562; conditions: Homo sapiens, K562, K-562, 48 hours exposure
Description: as §1, §2, §3, §4, §5, §6, §7

[15] = cell killing, read-out: LC50 (the source's name)
[16] = total growth inhibition, read-out: TGI

Row | Compound | GI50 [1] [µM] | LC50 (concentration for 50% cell killing) [1] [µM] | IC (total growth inhibition) [1] [µM] | GI50 [4] [µM] | CC50 [4] [µM] | IC (total growth inhibition) [4] [µM] | GI50 [5] [µM] | CC50 [5] [µM] | IC (total growth inhibition) [5] [µM] | CC50 ([7]; HELA-APL, 48 hours exposure) [µM] | GI50 [8] [µM] | CC50 [8] [µM] | IC (total growth inhibition) [8] [µM] | GI50 [9] [µM] | CC50 [9] [µM] | IC (total growth inhibition) [9] [µM] | GI50 [10] [µM] | CC50 [10] [µM] | IC (total growth inhibition) [10] [µM] | GI50 [11] [µM] | also measured
1 | C/C=C\[C@H](C)[C@H]1OC1(C)[C@@H](O)[C@@H](CO)C(=O)[C@@H](CO)[C@H](O)CC(=O)CC (stereo partly drawn) [3d + 4d] | 26.8 | 26.8 | 26.8 | 26.8 | 26.8 | 26.8 | 13.5 | 26.8 | 26.8 | 26.8 | 17.1 | 26.8 | 26.8 | 26.8 | 26.8 | 26.8 | 26.8 | 26.8 | 26.8 | 26.8 | GI50 [2]: 20.5 µM; CC50 [2]: 26.8 µM; TGI [2]: 2.68E−05 Molar; GI50 [3]: 26.8 µM; CC50 [3]: 26.8 µM; IC (total growth inhibition) [3]: 26.8 µM; GI50 [6]: 20.5 µM; CC50 [6]: 26.8 µM; IC (total growth inhibition) [6]: 26.8 µM; GI50 ([7]; HELA-APL, 48 hours exposure, read-out: GI50): 26.8 µM; IC (total growth inhibition) ([7]; HELA-APL, 48 hours exposure, total growth inhibition): 26.8 µM; LC50 [11]: 26.8 µM; IC (total growth inhibition) [11]: 26.8 µM; GI50 [12]: 26.8 µM; CC50 [12]: 26.8 µM; IC (total growth inhibition) [12]: 26.8 µM
2 | C/C=C\[C@H](C)[C@H]1OC1(C)[C@@H](O[Si](C)(C)C(C)(C)C)[C@@H](CO)C(=O)[C@@H](CO)[C@H](O)CC(=O)CC (stereo partly drawn) [31b + 31d] | 20.5 | 20.5 | 20.5 | 20.5 | 20.5 | 20.5 | 12.6 | 20.5 | 20.5 | 20.5 | 20.5 | 20.5 | 20.5 | 20.5 | 20.5 | 20.5 | 20.5 | 20.5 | 20.5 | 20.5 | GI50 [2]: 20.2 µM; CC50 [2]: 20.5 µM; TGI [2]: 2.05E−05 Molar; GI50 [3]: 20.5 µM; CC50 [3]: 20.5 µM; IC (total growth inhibition) [3]: 20.5 µM; GI50 [6]: 16.5 µM; CC50 [6]: 20.5 µM; IC (total growth inhibition) [6]: 20.5 µM; LC50 [11]: 20.5 µM; IC (total growth inhibition) [11]: 20.5 µM; GI50 [12]: 20.5 µM; CC50 [12]: 20.5 µM; IC (total growth inhibition) [12]: 20.5 µM
3 | C/C=C\[C@H](C)[C@H]1OC1(C)[C@@H](O[Si](C)(C)C(C)(C)C)[C@@H](CO[Si](C)(C)C(C)(C)C)C(=O)[C@@H](CO[Si](C)(C)C(C)(C)C)[C@H](CC(=O)CC)O[Si](C)(C)C(C)(C)C (stereo partly drawn) [Compound 30a] | 12.1 | 12.1 | 12.1 | 12.1 | 12.1 | 12.1 | 12.1 | 12.1 | 12.1 | 12.1 | 8.27 | 12.1 | 12.1 | 12.1 | 12.1 | 12.1 | 12.1 | 12.1 | 12.1 | 6.37 | GI50 [2]: 8.56 µM; CC50 [2]: 12.1 µM; TGI [2]: 1.21E−05 Molar; LC50 [11]: 12.1 µM; IC (total growth inhibition) [11]: 12.1 µM; GI50 [12]: 12.1 µM; CC50 [12]: 12.1 µM; IC (total growth inhibition) [12]: 12.1 µM
4 | C/C=C\[C@H](C)[C@H]1OC1(C)[C@@H](O[Si](C)(C)C(C)(C)C)[C@@H](CO[Si](C)(C)C(C)(C)C)C(=O)[C@@H](CO[Si](C)(C)C(C)(C)C)[C@@H](CC(=O)CC)O[Si](C)(C)C(C)(C)C (stereo partly drawn) [Compound 30b] | 12.1 | 12.1 | 12.1 | 12.1 | 12.1 | 12.1 | 12.1 | 12.1 | 12.1 | 12.1 | 8.27 | 12.1 | 12.1 | 12.1 | 12.1 | 12.1 | 12.1 | 12.1 | 12.1 | 6.88 | GI50 [2]: 12.1 µM; CC50 [2]: 12.1 µM; TGI [2]: 1.21E−05 Molar; LC50 [11]: 12.1 µM; IC (total growth inhibition) [11]: 12.1 µM; GI50 [12]: 12.1 µM; CC50 [12]: 12.1 µM; IC (total growth inhibition) [12]: 12.1 µM
5 | C/C=C\[C@H](C)[C@H]1OC1(C)[C@@H](O[Si](C)(C)C(C)(C)C)[C@@H](COC(C)=O)C(=O)[C@H](CO)[C@H](O)CC(=O)CC (stereo partly drawn) [Compound 43] | 3.31 | 15.7 | 7.21 | 4.37 | 16.4 | 8.47 | 3.73 | 13.2 | 7.02 | 18.9 | 4.52 | 17.8 | 8.96 | 3.9 | 13.4 | 7.24 | 4.99 | 18.7 | 9.66 | 4.03 | GI50 [13]: 3.78 µM; CC50 [13, 15]: 15.4 µM; IC (total growth inhibition) [13, 16]: 7.62 µM; GI50 [3]: 4.24 µM; CC50 [3]: 16.2 µM; IC (total growth inhibition) [3]: 8.28 µM; GI50 [6]: 4.94 µM; CC50 [6]: 18.9 µM; IC (total growth inhibition) [6]: 9.99 µM; GI50 ([7]; 48 h): 4.27 µM; IC (total growth inhibition) ([7]; 48 h): 9.34 µM; LC50 [11]: 18.9 µM; IC (total growth inhibition) [11]: 9.06 µM; GI50 [14]: 3.59 µM; CC50 [14, 15]: 16.5 µM; IC (total growth inhibition) [14, 16]: 7.72 µM; GI50 [12]: 4.44 µM; CC50 [12]: 16.2 µM; IC (total growth inhibition) [12]: 8.49 µM
